The target of one data set is 5-HT2A receptor (Homo sapiens, UniProt P28223). The note with it: cited from earlier work.
For the next data set, the target named is histamine H1 receptor (Homo sapiens, UniProt P35367). The note with it: cited from earlier work.
For a further data set, the target named is T1, M1 muscarinic receptor (Homo sapiens, UniProt P11229).
T1 sequence (P11229 1-460): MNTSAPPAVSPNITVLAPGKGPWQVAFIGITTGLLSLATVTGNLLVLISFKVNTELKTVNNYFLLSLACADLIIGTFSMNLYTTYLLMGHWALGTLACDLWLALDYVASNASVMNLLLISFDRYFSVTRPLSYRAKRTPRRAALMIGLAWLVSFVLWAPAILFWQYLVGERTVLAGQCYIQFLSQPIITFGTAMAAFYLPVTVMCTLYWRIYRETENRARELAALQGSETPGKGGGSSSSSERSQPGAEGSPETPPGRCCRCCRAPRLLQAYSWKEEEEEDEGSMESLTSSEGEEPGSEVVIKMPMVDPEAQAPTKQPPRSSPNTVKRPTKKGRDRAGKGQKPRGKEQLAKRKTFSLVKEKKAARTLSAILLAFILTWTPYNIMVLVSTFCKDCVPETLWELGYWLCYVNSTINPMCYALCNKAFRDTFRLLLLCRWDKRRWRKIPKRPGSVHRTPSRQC
The note with it: cited from earlier work.

Data set [1] has as its target norepinephrine reuptake transporter (NET) (Homo sapiens, UniProt P23975). The note with it: cited from earlier work.
The target of data set [2] is T2, serotonin 5-HT1A receptor (Homo sapiens, UniProt P08908).
T2 sequence (P08908 1-422): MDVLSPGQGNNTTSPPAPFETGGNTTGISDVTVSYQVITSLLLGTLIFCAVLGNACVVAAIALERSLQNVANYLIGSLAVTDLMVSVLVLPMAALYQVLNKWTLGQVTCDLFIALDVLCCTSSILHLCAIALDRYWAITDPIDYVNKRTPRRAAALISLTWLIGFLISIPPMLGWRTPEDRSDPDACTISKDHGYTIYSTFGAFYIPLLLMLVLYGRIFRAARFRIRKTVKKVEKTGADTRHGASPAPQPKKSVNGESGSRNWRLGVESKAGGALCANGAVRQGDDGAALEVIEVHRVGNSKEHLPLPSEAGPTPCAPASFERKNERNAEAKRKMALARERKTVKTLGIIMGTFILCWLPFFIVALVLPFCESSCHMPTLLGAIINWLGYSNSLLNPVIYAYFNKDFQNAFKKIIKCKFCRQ
The note with it: cited from earlier work.

Data set [3] concerns the target serotonin 5-HT1E receptor (Homo sapiens, UniProt P28566). The note with it: cited from earlier work.
The target in data set [4] is serotonin 5-HT2B receptor (Homo sapiens, UniProt P41595). As to conditions: cited from earlier work.
The target of another data set is serotonin 5-HT7 receptor (Homo sapiens, UniProt P34969). As to conditions: cited from earlier work.
The next data set concerns the target T3, α1B-adrenergic receptor (Homo sapiens, UniProt P35368).
T3 sequence (P35368 1-520): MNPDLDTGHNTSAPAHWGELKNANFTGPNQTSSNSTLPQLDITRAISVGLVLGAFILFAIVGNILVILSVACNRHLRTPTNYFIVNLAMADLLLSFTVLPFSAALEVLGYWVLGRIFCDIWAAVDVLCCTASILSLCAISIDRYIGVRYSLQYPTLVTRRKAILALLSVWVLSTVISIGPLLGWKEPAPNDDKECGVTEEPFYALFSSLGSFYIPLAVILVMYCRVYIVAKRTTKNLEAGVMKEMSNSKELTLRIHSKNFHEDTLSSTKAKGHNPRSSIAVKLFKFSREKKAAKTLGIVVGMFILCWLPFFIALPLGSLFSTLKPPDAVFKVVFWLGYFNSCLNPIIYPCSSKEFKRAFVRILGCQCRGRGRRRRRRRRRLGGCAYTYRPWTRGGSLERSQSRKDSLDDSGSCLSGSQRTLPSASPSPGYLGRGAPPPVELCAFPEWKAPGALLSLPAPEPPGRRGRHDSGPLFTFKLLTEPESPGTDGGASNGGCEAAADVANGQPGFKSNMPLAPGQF
As to conditions: cited from earlier work.

For a further data set, the target named is M3 muscarinic receptor (Homo sapiens, UniProt P20309). The note with it: cited from earlier work.
In a further data set the target is T4, M5 muscarinic receptor (Homo sapiens, UniProt P08912).
T4 sequence (P08912 1-532): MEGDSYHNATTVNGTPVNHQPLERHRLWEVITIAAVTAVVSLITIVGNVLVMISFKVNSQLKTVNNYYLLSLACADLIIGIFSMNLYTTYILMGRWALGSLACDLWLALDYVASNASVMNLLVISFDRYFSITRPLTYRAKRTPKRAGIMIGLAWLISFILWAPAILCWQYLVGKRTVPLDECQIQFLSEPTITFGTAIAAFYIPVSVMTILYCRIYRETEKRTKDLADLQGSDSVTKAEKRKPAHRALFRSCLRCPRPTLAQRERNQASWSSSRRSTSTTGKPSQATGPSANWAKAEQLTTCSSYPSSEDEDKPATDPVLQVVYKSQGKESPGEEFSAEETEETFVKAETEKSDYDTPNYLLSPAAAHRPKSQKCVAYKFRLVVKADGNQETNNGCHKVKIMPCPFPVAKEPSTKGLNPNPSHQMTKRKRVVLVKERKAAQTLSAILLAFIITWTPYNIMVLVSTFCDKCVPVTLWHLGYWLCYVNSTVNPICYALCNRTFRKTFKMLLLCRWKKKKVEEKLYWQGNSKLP
As to conditions: cited from earlier work.

Another data set concerns the target T5, 5-HT1A receptor (Homo sapiens, UniProt P08908).
T5 sequence (P08908 1-422): T2 sequence (P08908 1-422)
As to conditions: relative to quetiapine; cited from earlier work.

For data set [5] the following is noted: oral solution.
The conditions of data set [6]: cited from earlier work.
The subject of the next data set is leptin. As to conditions: chronic oral administration for 6 weeks; cited from earlier work.
The conditions of data set [7]: clinical trials; cited from earlier work.
A further data set concerns the target dopaminergic D1 receptor (Homo sapiens, UniProt P21728). The note with it: cerebral receptors; cited from earlier work.
For the next data set, the target named is dopaminergic D2 receptor (Homo sapiens, UniProt P14416). The note with it: cerebral receptors; cited from earlier work.
The next data set relates to a1-adrenergic receptors. As to conditions: cited from earlier work.
Another data set relates to α2-adrenergic receptors. The note with it: cited from earlier work.
The conditions of data set [8]: patients, cited from earlier work.
The conditions of data set [9]: in vivo; cited from earlier work.

Structures can show the parent of a compound that is named as a salt.

Sequence of norepinephrine reuptake transporter (NET) (P23975 whole entry): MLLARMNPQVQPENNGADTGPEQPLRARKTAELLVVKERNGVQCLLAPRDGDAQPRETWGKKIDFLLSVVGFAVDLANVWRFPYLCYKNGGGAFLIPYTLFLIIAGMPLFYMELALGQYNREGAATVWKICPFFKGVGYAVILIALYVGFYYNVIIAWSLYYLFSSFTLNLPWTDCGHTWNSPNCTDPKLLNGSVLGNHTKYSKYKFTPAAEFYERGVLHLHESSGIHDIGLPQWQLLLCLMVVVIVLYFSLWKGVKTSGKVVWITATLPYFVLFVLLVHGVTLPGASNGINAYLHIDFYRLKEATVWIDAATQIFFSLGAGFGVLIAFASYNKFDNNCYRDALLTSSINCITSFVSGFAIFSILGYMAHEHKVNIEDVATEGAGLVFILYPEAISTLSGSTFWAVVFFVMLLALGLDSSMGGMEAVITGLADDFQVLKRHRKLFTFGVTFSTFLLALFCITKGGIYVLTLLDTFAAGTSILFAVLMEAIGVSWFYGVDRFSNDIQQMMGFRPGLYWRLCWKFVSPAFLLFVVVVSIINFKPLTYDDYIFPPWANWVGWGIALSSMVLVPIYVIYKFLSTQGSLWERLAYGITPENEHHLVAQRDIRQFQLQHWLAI
Sequence of 5-HT2A receptor (P28223 whole entry): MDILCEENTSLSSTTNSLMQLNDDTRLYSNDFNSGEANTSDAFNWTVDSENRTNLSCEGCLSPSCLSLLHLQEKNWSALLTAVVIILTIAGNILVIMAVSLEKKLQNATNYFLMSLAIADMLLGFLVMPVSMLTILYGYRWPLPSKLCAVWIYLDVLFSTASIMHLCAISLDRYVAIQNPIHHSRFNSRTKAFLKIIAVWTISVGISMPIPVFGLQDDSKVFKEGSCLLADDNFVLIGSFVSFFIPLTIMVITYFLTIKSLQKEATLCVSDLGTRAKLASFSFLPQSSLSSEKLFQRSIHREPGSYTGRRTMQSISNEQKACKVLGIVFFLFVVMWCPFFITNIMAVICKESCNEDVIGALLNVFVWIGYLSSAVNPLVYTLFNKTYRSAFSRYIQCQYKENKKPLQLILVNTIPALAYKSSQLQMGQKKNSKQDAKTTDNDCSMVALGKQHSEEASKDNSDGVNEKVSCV
Sequence of serotonin 5-HT1E receptor (P28566 whole entry): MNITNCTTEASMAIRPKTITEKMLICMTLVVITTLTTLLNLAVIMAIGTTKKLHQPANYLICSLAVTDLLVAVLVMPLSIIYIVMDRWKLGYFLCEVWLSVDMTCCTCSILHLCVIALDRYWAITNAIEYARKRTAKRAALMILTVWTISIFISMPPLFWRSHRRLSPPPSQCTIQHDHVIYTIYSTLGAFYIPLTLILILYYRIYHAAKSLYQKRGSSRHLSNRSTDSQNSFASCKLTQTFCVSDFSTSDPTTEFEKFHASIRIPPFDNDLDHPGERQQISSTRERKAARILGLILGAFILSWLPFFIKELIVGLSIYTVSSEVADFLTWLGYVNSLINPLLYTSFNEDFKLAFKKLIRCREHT
Sequence of dopaminergic D1 receptor (P21728 whole entry): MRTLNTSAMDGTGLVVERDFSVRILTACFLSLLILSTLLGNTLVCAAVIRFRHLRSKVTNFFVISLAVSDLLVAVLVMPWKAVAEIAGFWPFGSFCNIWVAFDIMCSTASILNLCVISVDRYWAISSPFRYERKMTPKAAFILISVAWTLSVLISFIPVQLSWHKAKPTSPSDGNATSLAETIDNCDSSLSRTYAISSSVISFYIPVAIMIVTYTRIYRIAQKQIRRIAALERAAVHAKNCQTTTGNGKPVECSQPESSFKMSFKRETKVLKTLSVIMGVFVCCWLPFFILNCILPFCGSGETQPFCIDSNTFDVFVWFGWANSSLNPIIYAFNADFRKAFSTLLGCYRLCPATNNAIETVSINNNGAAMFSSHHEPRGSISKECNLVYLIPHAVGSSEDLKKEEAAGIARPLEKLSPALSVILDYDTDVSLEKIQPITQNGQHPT
Sequence of serotonin 5-HT2B receptor (P41595 whole entry): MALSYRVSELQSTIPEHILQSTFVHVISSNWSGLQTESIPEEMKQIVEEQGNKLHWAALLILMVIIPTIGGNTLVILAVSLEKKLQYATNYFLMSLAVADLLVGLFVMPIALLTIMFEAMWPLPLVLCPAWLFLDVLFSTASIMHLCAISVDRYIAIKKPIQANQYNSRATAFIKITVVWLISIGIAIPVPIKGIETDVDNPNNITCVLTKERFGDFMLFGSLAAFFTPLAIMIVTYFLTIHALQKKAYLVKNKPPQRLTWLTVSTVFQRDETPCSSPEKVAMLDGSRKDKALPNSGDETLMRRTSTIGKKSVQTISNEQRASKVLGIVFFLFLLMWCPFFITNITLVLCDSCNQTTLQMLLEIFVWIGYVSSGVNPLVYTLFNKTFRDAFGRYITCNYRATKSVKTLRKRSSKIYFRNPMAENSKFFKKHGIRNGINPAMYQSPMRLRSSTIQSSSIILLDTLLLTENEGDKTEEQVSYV
Sequence of histamine H1 receptor (P35367 whole entry, species assumed): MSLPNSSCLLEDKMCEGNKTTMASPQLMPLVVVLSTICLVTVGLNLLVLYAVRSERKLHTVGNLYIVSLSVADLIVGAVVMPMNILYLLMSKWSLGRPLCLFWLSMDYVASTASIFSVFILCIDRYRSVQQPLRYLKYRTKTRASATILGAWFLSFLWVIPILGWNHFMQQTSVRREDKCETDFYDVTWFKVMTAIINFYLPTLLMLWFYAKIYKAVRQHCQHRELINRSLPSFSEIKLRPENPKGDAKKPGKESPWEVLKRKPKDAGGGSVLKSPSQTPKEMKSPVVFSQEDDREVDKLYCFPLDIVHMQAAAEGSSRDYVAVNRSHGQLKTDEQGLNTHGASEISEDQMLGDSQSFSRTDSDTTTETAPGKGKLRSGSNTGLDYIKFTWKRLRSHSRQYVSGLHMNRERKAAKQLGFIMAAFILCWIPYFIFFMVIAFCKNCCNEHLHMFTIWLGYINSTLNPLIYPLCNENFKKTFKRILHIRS
Sequence of M3 muscarinic receptor (P20309 whole entry): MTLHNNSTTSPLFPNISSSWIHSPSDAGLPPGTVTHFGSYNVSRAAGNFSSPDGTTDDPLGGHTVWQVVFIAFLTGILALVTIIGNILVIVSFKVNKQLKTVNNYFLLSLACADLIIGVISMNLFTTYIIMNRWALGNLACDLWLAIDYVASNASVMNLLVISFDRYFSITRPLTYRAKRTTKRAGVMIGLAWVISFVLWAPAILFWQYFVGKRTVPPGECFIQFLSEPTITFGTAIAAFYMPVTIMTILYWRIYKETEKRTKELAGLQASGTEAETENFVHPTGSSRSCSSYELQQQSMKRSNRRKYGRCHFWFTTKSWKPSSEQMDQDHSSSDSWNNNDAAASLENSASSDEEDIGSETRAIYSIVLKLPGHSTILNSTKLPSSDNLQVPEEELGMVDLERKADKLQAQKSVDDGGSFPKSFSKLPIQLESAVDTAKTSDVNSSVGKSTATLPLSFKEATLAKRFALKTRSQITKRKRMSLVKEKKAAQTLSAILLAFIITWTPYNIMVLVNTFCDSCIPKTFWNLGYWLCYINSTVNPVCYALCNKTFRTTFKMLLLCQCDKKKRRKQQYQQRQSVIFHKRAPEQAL
Sequence of serotonin 5-HT7 receptor (P34969 whole entry): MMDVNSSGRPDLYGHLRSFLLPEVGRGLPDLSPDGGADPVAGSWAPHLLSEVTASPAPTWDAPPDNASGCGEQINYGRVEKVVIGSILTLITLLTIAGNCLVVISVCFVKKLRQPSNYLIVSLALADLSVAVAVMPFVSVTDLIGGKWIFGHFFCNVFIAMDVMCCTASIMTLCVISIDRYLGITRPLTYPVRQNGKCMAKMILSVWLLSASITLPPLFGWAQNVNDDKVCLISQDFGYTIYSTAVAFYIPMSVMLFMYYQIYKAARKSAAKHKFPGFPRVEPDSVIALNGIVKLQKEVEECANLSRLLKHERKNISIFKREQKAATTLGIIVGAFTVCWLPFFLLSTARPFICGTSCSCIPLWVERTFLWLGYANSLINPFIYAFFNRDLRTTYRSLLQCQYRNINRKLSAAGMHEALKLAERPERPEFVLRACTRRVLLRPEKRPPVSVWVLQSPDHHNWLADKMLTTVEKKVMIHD
Sequence of dopaminergic D2 receptor (P14416 whole entry): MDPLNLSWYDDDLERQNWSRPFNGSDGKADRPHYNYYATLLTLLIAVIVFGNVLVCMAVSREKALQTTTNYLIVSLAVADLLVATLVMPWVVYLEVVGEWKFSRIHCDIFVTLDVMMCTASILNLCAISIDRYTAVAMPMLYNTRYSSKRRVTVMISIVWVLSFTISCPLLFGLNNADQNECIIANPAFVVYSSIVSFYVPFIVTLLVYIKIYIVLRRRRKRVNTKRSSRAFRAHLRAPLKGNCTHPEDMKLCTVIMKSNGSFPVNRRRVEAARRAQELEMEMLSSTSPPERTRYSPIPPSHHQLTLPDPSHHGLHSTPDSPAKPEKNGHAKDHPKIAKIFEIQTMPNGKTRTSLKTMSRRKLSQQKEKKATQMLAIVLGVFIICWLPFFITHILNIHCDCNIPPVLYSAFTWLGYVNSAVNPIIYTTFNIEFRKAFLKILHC

For the compound `c1ccc2c(c1)N=C(N1CCNCC1)c1ccccc1S2` [N-desalkyl-quetiapine], the “affinity” value on 5-HT2A receptor is on record as “moderate affinities”; on histamine H1 receptor, “high affinity”; at M1 muscarinic receptor, “moderate affinities”; in [1], “moderate affinities”; in [2], “moderate affinities”; in [3] it was “moderate affinities”. Further, the “affinity” value (in data set [4]; on serotonin 5-HT7 receptor; on α1B-adrenergic receptor; at M3 muscarinic receptor; on M5 muscarinic receptor) was “moderate affinities” throughout. For the same compound, the “avidity for inhibiting human NET, fold higher than quetiapine” value in data set [1] (relative to quetiapine) is “about 100 fold”. On 5-HT1A receptor, the “potency at the 5-HT1A receptor, fold more potent than quetiapine” value is reported as 10 fold.

`OCCOCCN1CCN(C2=Nc3ccccc3Sc3ccccc32)CC1` [quetiapine fumarate]: the “solubility for dosing via oral gavage in rats” value in data set [5] is recorded as “not soluble enough”.

As to `OCCOCCN1CCN(C2=Nc3ccccc3Sc3ccccc32)CC1` [quetiapine, 2-(2-(4-(dibenzo[b,f][1,4]thiazepin-11-yl)piperazin-1-yl)ethoxy)ethanol], in [6] (in vivo), the “terminal half-life time for elimination” value is listed as “about 7 hours”. In addition, the Absolute bioavailability in [6] (oral) was 9%. The “increase in leptin release” value with leptin is given as “about 37%”. Further, the “prolongation of the QT interval” value in data set [7] was “small insignificant prolongations”. The “affinity” value is “major affinity” at dopaminergic D1 receptor, “major affinity” on dopaminergic D2 receptor, “moderate affinity” with a1-adrenergic receptors and “moderate affinity” with α2-adrenergic receptors.

With `CCCC(CCC)C(=O)O` [valproic acid, 2-propylpentanoic acid], the time to response in [8] (acute mania) is 1-2 weeks. Moreover, in data set [8] (placebo effect 20-30%), the “response rate in acute mania” value is “around 50%”. In addition, the “response rate in bipolar depression” value in data set [9] was ~30%.

The values above are taken from patent US20130158007A1 (KEMPHARM, INC., priority 2010, published 2013).
